Test results from patent US12678478B2, “Compositions and methods for treating dysregulated wound healing” (The Regents of the University of California, priority 2020, dated 2026).

Tests used:
[1] = test system: Col5a1CKO cardiac fibroblasts; assay: Myofibroblast gene expression (qPCR) in Col5a1CKO cardiac fibroblasts generated ex vivo with or without cilengitide; assay type: cell-based, mouse; details: Cilengitide 1 μM, 7 days, Col5a1 floxed cardiac fibroblasts infected with lentiviral Cre, versus no cilengitide (FIG. 8F)
Method: For qPCR, and RNA-seq, the injured and uninjured regions of the heart were harvested at different time points following injury, RNA extracted using RNeasy Mini kit (Qiagen). cDNAs were generated using iScript cDNA Synthesis Kit (BioRad) and qPCR performed.
Cardiac fibroblasts were isolated from Col5a1 fl/fl mouse as described above. These cells were infected with Lentivirus-Large T antigen in presence of polybrene (8 μg/ml) for 16 h, treated with puromycin (2 μg/ml) for selection of infected cells. Immortalized cells were cultured with 10% FBS containing high glucose DMEM. Cells so immortalized were then infected with Lentivirus-Cre recombinase or lentivirus-GFP to generate Col5a1 deficient cardiac fibroblast or control cardiac fibroblast, respectively. These cells were cultured for 6-7 days and used for each experiment to determine effects on gene expression. To determine an effect of Cilengitide on these cells, Col5a1fl/fl cardiac fibroblasts were pretreated with Cilengitide (1 μM) in 10% FBS containing high glucose DMEM for 1 h before infection with lentivirus-Cre recombinase or lentivirus-GFP. […]
Given the upregulation of αvβ3 and αvβ5 integrins in Col5a1CKO cardiac fibroblasts, whether there was a causal relationship between these differentially expressed integrins and myofibroblast differentiation was determined. […]

Col5a1CKO animals = assay: Acute ischemic cardiac injury (LAD ligation) in Col5a1CKO animals treated with cilengitide; assay type: in vivo, mouse
[2] = test system: control (Cre(−)Col5a1fl/fl) littermate animals; assay: Acute ischemic cardiac injury (LAD ligation) in control littermates treated with cilengitide; assay type: in vivo, mouse
Method: All animal studies were approved by the Animal Research Committee, University of California, Los Angeles, Myocardial infarction was performed by ligating the left anterior descending (LAD) coronary artery following open thoracotomy. Briefly, Mice were anesthetized with ketamine (80 mg/kg)/xylazine (20 mg/kg) by intraperitoneal injection. Respiration was provided by mechanical ventilation with 95% 02 (tidal volume 0.5 ml, 130 breaths/min). The LAD coronary artery was ligated intramurally 2 mm from its origin with a 9-0 proline suture.
For experiments related to use of cilengitide, 20 mg/kg of Cilengitide diluted in PBS was administered by intraperitoneal injection every day until harvest and PBS was used as vehicle as a control.
For echocardiography, animals were continuously anesthetized with 1.5% isoflurane and 95% O2, Vevo2100 imaging system and a […] scan head (Toronto, Canada) were used to acquire short/long axis B-mode and M-mode images. Long axis B-mode view was used for analyzing peak longitudinal strain rate. […]
For Masson Trichrome staining, sections were stained using Masson Trichrome Stain kit (Thermo Scientific, 87019). Images were taken in heart sections from apex, mid-ventricle, and close to suture and fibrotic area analyzed from apex to mid-ventricle. Scar tissue area was calculated as the fraction of left ventricular surface area occupied by the scar tissue. […]

For `CC(C)[C@H]1C(=O)N[C@@H](CCCN=C(N)N)C(=O)NCC(=O)N[C@@H](CC(=O)O)C(=O)N[C@H](Cc2ccccc2)C(=O)N1C` [cilengitide, Cilengitide], the “expression of myofibroblast markers” value [1] was “significantly reduced”, the “fraction of animals exhibiting severe fibrosis” value (Col5a1CKO animals; 20 mg/kg daily for 14 days, 2 weeks post injury, severe = >50% fibrotic area (FIG. 8L)) was 22% and the “degree of myocyte hypertrophy in the border zone (heart weight/body weight ratios and histological analysis)” value (Col5a1CKO animals; 20 mg/kg daily for 14 days, 2 weeks post injury, versus vehicle-injected group, p<0.05 (FIGS. 8N, 8O)) was “substantially reduced”. For the same molecule, the “Scar size expressed as a fraction of left ventricular surface area” value (Col5a1CKO animals; 20 mg/kg daily for 14 days, Masson trichrome, 2 weeks post injury, mean±S.D., n=9, p<0.05 versus Col5a1CKO+vehicle (FIGS. 8J, 8K)) was 41.2±16.1%, the “post injury cardiac function (EF, FS by echocardiography)” value (Col5a1CKO animals; 20 mg/kg daily intraperitoneal for 14 days from day of injury, 1 and 2 weeks after injury, versus vehicle-injected Col5a1CKO (FIGS. 8H, 8I)) was “complete rescue of function” and the “number of myofibroblasts (αSMA+vimentin+cells/vimentin+cells) in scars” value (Col5a1CKO animals; 2 weeks of cilengitide injection, 20 mg/kg daily, versus vehicle-injected group, p<0.05 (FIG. 8M)) was “significantly reduced”. The “post injury cardiac function (EF, FS by echocardiography)” value ([2]; 20 mg/kg daily for 14 days from day of injury, control littermates (FIG. 8H)) was “did not affect” and the scar size ([2]; 20 mg/kg daily for 14 days, control animals, 2 weeks post injury (FIGS. 8J, 8K)) was “did not affect”.
